ChEMBL document CHEMBL6127086, “Recent advances in dual PROTACs degrader strategies for disease treatment” (Eur J Med Chem, 2024)
Each block holds one molecule with its values, some of them ahead of it. Starred links: 1 amine or outer side, 2 acyl side, 3 side chain; linkers in the order of their positions; H or OH if unused. Non-standard residues stand in square brackets, D forms with d. Residues, ends and D or L forms follow the SMILES beside them. *: point of attachment. X1 = O=C([C@H](Cc1ccc(C(F)(F)P(=O)(O)O)cc1)O[*:1])[*:2]; NHCH2(1,3-C6H4)CH2CO = O=C(Cc1cccc(CN[*:1])c1)[*:2]; Phenylacetyl(4-OH,3-OMe) = COc1cc(CC(=O)*)ccc1O; Benzoyl(3-Br,4-Me) = Cc1ccc(C(=O)*)cc1Br; X2 = Cc1ncsc1-c1ccc([C@@H](C)N*)cc1; Hyp = O=C(O)[C@@H]1C[C@@H](O)CN1; Tle = CC(C)(C)[C@H](N)C(=O)O

Tests used:
[1] = biological target: Protein cereblon/Cyclin-dependent kinase 4 (Homo sapiens, UniProt P11802+Q96SW2); test: Protac activity at CRBN/CDK4 in human MDA-MB-231 cells assessed as induction of CDK4 degradation measured after 6 hrs by Western blot analysis; assay type: cell-based
[2] = biological target: Protein cereblon/Cyclin-dependent kinase 6 (Homo sapiens, UniProt Q00534+Q96SW2); test: Protac activity at CRBN/CDK6 in human MDA-MB-231 cells assessed as induction of CDK6 degradation measured after 18 hrs by Western blot analysis; assay type: cell-based
[3] = biological target: von Hippel-Lindau disease tumor suppressor/Bromodomain-containing protein 4 (Homo sapiens) (UniProt O60885+P40337); test: PROTAC activity at human VHL/BRD4 in human HT-1080 cells assessed as maximum degradation of BRD4 at 0.2 uM incubated for 24 hrs by Western blot analysis relative to control; assay type: cell-based
[4] = biological target: von Hippel-Lindau disease tumor suppressor/Bcl-2-like protein 1 (Homo sapiens, UniProt Q07817+P40337); test: PROTAC activity at VHL/BCL-XL in human Jurkat cells assessed as induction of BCL-XL degradation incubated for 16 hrs by immunoblot analysis; assay type: cell-based
[5] = biological target: T1, von Hippel-Lindau disease tumor suppressor/Bromodomain-containing protein 2 (Homo sapiens, UniProt P25440+P40337); test: PROTAC activity at human VHL/BRD2 in human HeLa cells assessed as degradation of BRD2 incubated for 16 hrs by Western blot analysis; assay type: cell-based
[6] = biological target: T2, Protein cereblon/Bromodomain-containing protein 4 (Homo sapiens, UniProt O60885+Q96SW2); test: PROTAC activity at CRBN/BRD4 (unknown origin) expressed in HEK293 cells assessed as induction of BRD4 degradation measured after 4 hrs by Western blot analysis; assay type: cell-based
[7] = biological target: T2, Protein cereblon/Bromodomain-containing protein 4; test: PROTAC activity at CRBN/BRD4 (unknown origin) expressed in HEK293 cells assessed as induction of BRD4 degradation incubated for 6 hrs by Western blot analysis; assay type: cell-based
[8] = test system: RKO; test: Antiproliferative activity against human RKO cells assessed as reduction in cell viability by Celltiter-glo reagent based analysis; assay type: functional
[9] = biological target: Protein cereblon/CREB-binding protein (Homo sapiens) (UniProt Q92793+Q96SW2); test: PROTAC activity at CRBN/CBP in human MV4-11 cells assessed as induction of protein degradation by measuring maximal degradation at 250 nM incubated for 24 hrs by Western blotting analysis relative to control; assay type: cell-based
[10] = biological target: T3, Cereblon/Ikaros (Homo sapiens, UniProt Q96SW2+Q13422); test: PROTAC activity at CRBN/IKZF1 in human MV4-11 cells assessed as maximum degradation of protein at 0.1 uM incubated for 18 hrs by Western blotting analysis relative to control; assay type: cell-based
[11] = biological target: T3, Cereblon/Ikaros; test: PROTAC activity at CRBN/IKZF1 in human MV4-11 cells assessed as degradation of IKZF1 protein incubated for 18 hrs by Western blotting analysis; assay type: cell-based
[12] = biological target: von Hippel-Lindau disease tumor suppressor/WD repeat-containing protein 5 (Homo sapiens, UniProt P61964+P40337); test: PROTAC activity at VHL/WDR5 in human MIA PaCa-2 cells assessed as degradation of WDR5 protein incubated for 18 hrs by Western blotting analysis; assay type: cell-based
[13] = Antiproliferative activity against human MINO cells assessed as reduction in cell viability incubated fro 72 hrs by Celltiter-glo reagent based analysis; assay type: functional
[14] = test system: OVCAR-8; test: Antiproliferative activity against human OVCAR-8 cells assessed as inhibition of growth rate measured for 72 hrs; assay type: functional
[15] = biological target: T4, Protein cereblon/Tyrosine-protein phosphatase non-receptor type 1 (Homo sapiens, UniProt P18031+Q96SW2); test: PROTAC activity at PTP1B/CRBN human HepG2 cells assessed as protein degradation incubated for 24 hrs by Western blot analysis; assay type: cell-based
[16] = biological target: T4, Protein cereblon/Tyrosine-protein phosphatase non-receptor type 1; test: PROTAC activity at PTP1B/CRBN human HepG2 cells assessed as protein degradation incubated for 16 hrs by Western blot analysis; assay type: cell-based
[17] = biological target: Protein cereblon/Bromodomain-containing protein 3 (Homo sapiens, UniProt Q15059+Q96SW2); test: PROTAC activity at CRBN/BRD3 in human MV4-11 cells assessed as degradation of BRD3 protein incubated for 4 hrs by Western blotting assay; assay type: cell-based
[18] = biological target: Protein cereblon/Bromodomain-containing protein 2 (Homo sapiens, UniProt P25440+Q96SW2); test: PROTAC activity at CRBN/BRD2 in human MV4-11 cells assessed as degradation of BRD2 protein incubated for 4 hrs by Western blotting assay; assay type: cell-based
[19] = test system: CWR22R; test: Antiproliferative activity against human 22Rv1 cells assessed as reduction in cell viability incubated for 72 hrs by Celltiter- Glo assay; assay type: functional, cell-based; conditions: 22Rv1, 72 h
[20] = test system: VCaP; test: Antiproliferative activity against human VCaP cells assessed as reduction in cell viability incubated for 72 hrs by Celltiter- Glo assay; assay type: functional, cell-based
[21] = Antiproliferative activity against human LNCaP-95 cells assessed as reduction in cell viability incubated for 72 hrs by Celltiter- Glo assay; assay type: functional, cell-based; conditions: LNCaP-95, 72 h
[22] = biological target: T1, von Hippel-Lindau disease tumor suppressor/Bromodomain-containing protein 2; test: PROTAC activity at VHL/BRD2 in human 22Rv1 cells assessed as degradation of BRD2 incubated for 16 hrs by Western blot analysis; assay type: cell-based

T1 sequence (P25440 whole entry): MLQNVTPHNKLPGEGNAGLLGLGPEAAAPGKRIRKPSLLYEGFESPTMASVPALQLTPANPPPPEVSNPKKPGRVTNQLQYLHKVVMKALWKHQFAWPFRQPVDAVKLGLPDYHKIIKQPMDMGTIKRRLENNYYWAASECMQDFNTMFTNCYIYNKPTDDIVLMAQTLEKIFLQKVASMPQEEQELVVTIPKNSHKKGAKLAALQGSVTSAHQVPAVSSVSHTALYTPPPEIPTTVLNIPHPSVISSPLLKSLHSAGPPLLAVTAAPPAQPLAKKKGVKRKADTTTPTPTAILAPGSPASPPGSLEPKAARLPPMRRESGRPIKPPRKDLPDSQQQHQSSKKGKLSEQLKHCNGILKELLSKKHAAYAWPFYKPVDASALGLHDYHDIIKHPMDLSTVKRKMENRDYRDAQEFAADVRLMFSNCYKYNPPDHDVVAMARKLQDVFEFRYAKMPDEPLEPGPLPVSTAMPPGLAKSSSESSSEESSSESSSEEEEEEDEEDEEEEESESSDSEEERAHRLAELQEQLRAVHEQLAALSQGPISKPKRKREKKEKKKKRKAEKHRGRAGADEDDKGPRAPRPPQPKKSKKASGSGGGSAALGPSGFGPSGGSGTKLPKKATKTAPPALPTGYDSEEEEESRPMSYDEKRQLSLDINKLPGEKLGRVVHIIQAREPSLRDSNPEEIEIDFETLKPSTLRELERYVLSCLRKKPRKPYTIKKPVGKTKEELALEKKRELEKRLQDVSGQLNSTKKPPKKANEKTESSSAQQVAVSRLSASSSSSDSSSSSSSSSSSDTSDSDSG
T1 sequence (P40337 whole entry): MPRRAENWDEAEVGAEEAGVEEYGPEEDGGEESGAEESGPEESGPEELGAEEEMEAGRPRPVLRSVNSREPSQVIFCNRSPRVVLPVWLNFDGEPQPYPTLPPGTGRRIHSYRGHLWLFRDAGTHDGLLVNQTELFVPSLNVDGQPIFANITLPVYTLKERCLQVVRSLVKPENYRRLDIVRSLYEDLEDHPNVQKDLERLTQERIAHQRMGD
T2 sequence (Q96SW2 whole entry, looked up, other chains not shown): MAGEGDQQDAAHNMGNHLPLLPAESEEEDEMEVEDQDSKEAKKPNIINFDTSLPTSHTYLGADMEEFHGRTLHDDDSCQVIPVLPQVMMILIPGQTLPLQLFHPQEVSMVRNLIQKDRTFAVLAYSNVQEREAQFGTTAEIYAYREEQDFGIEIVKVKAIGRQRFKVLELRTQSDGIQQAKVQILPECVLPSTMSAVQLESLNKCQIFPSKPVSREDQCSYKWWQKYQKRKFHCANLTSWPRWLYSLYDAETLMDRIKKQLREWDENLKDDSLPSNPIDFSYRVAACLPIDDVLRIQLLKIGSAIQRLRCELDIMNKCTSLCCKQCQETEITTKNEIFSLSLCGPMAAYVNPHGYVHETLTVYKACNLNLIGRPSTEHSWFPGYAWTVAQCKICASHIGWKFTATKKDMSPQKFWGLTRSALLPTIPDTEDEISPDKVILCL
T4 sequence (P18031 whole entry): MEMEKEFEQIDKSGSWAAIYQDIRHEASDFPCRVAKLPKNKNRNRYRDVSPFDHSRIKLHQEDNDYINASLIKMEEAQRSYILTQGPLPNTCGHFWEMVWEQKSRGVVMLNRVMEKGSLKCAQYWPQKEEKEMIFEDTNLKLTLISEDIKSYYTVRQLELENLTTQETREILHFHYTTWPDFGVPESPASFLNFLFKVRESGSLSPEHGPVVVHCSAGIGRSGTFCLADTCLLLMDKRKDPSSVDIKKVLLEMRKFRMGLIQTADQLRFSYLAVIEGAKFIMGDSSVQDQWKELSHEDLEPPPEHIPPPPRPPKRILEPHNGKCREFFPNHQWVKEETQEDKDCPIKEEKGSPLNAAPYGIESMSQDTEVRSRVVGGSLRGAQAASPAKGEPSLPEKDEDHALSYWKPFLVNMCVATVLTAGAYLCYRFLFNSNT
T4 sequence (Q96SW2 whole entry): as the sequence (Q96SW2 whole entry, looked up, other chains not shown) above
Sequence of von Hippel-Lindau disease tumor suppressor/Bcl-2-like protein 1 (Q07817 whole entry): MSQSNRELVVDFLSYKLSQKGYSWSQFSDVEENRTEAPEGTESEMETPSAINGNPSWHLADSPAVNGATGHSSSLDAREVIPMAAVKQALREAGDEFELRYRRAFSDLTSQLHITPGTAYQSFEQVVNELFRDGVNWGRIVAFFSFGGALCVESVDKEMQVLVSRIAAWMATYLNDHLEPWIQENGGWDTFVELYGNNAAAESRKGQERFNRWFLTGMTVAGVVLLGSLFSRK
Sequence of von Hippel-Lindau disease tumor suppressor/Bcl-2-like protein 1 (P40337 whole entry): as the sequence (P40337 whole entry) above
Sequence of Protein cereblon/Bromodomain-containing protein 2 (P25440 whole entry): as the sequence (P25440 whole entry) above
Sequence of Protein cereblon/Bromodomain-containing protein 2 (Q96SW2 whole entry): as the sequence (Q96SW2 whole entry, looked up, other chains not shown) above
Sequence of Protein cereblon/Bromodomain-containing protein 3 (Q15059 whole entry): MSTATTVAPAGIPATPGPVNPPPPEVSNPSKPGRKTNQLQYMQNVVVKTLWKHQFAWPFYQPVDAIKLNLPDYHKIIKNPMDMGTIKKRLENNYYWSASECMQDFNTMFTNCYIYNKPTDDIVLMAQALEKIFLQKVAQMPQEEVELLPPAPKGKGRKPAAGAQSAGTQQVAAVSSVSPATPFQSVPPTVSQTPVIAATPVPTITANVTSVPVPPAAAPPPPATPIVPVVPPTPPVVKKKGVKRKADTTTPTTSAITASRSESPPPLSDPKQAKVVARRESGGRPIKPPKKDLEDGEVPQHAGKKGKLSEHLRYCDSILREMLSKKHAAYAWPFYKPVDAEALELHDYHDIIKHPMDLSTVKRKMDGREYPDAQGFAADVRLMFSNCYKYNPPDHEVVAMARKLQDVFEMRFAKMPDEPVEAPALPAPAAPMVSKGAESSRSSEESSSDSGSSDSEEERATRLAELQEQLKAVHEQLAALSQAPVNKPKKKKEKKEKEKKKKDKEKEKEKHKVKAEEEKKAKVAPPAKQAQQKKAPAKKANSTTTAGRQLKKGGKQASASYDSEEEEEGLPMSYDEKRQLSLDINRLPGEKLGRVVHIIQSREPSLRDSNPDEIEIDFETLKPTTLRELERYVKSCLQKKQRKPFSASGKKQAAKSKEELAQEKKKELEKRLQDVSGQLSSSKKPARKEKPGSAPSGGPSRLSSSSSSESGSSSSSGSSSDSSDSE
Sequence of Protein cereblon/Bromodomain-containing protein 3 (Q96SW2 whole entry): as the sequence (Q96SW2 whole entry, looked up, other chains not shown) above
T3 sequence (Q96SW2 whole entry): as the sequence (Q96SW2 whole entry, looked up, other chains not shown) above
T3 sequence (Q13422 whole entry): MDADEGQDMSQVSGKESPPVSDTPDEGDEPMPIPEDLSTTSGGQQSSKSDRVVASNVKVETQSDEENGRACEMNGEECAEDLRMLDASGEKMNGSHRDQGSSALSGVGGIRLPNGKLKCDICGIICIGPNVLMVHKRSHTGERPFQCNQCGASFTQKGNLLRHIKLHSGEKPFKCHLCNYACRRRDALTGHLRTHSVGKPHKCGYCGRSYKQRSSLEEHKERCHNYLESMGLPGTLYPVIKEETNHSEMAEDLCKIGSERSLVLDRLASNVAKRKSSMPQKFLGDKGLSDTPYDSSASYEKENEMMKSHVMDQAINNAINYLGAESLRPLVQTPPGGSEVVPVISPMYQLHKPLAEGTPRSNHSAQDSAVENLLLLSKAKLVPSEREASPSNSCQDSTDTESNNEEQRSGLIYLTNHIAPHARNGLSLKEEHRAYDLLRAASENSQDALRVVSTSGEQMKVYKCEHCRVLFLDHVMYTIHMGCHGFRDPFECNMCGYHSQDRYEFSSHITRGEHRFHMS
Sequence of Protein cereblon/Cyclin-dependent kinase 6 (Q00534 whole entry): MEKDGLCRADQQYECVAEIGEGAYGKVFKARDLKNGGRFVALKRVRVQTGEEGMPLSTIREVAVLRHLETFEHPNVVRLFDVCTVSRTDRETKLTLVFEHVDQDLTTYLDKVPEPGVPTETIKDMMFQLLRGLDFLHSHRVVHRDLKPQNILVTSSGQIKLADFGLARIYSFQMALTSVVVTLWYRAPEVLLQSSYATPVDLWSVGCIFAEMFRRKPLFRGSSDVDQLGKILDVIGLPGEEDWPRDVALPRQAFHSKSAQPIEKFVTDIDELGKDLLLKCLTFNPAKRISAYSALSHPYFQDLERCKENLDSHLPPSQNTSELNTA
Sequence of Protein cereblon/Cyclin-dependent kinase 6 (Q96SW2 whole entry): as the sequence (Q96SW2 whole entry, looked up, other chains not shown) above
Sequence of von Hippel-Lindau disease tumor suppressor/Bromodomain-containing protein 4 (Homo sapiens) (P40337 whole entry, looked up, other chains not shown): as the sequence (P40337 whole entry) above

SMILES: Cc1ncsc1-c1ccc([C@H](C)NC(=O)[C@@H]2C[C@@H](O)CN2C(=O)[C@@H](NC(=O)CN2CCN(CC(=O)N3CCN(C[C@]4(C)CCC(c5ccc(Cl)cc5)=C(CN5CCN(c6ccc(C(=O)NS(=O)(=O)c7ccc(N[C@H](CCN8C[C@H]9C[C@@H]8CO9)CSc8ccccc8)c(S(=O)(=O)C(F)(F)F)c7)cc6)CC5)C4)CC3)CC2)C(C)(C)C)cc1
DC50 [4]: 0.0006 µM

SMILES: Cc1ncsc1-c1ccc([C@H](C)NC(=O)[C@@H]2C[C@@H](O)CN2C(=O)[C@@H](NC(=O)OCC(C)(COCCOCCOCCNC(=O)C[C@@H]2N=C(c3ccc(Cl)cc3)c3c(sc(C)c3C)-n3c(C)nnc32)COCCOCCOCCNc2cc3c(cc2F)C(=O)N(C2CCC(=O)NC2=O)C3=O)C(C)(C)C)cc1 (some centres not stated)
DC50 [5]: 0.015 µM
DC50 [6]: 0.0023 µM
DC50 [7]: 0.0021 µM
EC50 [8]: 0.111 µM

SMILES: Cc1sc2c(c1C)C(c1ccc(Cl)cc1)=N[C@@H](CC(=O)Nc1ccc(OCCOCCOCCOCCNc3cccc4c3C(=O)N(C3CCC(=O)NC3=O)C4=O)cc1)c1nnc(C)n1-2 (some centres not stated)
IC50 [13]: 0.0145 µM

SMILES: Cc1cc(S(=O)(=O)NCCOCCOCCOCCOCCNc2cccc3c2C(=O)N(C2CCC(=O)NC2=O)C3=O)ccc1Nc1ncc(Br)c(Nc2cccc(F)c2C(N)=O)n1 (configuration not stated)
GR50 [14]: 33.1 nM

SMILES: COc1cc(CC(=O)N[C@@H](Cc2ccccc2)C(=O)O[C@@H](Cc2ccc(C(F)(F)P(=O)(O)O)cc2)C(=O)N[C@@H](CCCCNC(=O)c2ccc(C)c(Br)c2)C(=O)NCc2cccc(CC(=O)N[C@H](C(=O)N3C[C@H](O)C[C@H]3C(=O)N[C@H](C)c3ccc(-c4scnc4C)cc3)C(C)(C)C)c2)ccc1O ({Phenylacetyl(4-OH,3-OMe)}-F[X1]K(Benzoyl(3-Br,4-Me))[NHCH2(1,3-C6H4)CH2CO][Tle][Hyp]-X2)
DC50 [15]: 0.0087 µM
DC50 [16]: 0.0141 µM

Further lines, with some results ahead:

DC50 [1]: 0.097 µM
DC50 [2]: 0.3 µM
SMILES: CN(C)C(=O)c1cc2cnc(Nc3ccc(N4CCN(Cc5cn(CCCCCC(=O)Nc6cccc7c6C(=O)N(C6CCC(=O)NC6=O)C7=O)nn5)CC4)cn3)nc2n1C1CCCC1 (configuration not stated)

Emax [3]: 93%
SMILES: Cc1ncsc1-c1ccc(NC(=O)[C@@H]2C[C@@H](O)CN2C(=O)[C@@H](NC(=O)COCCOCCOc2cc(OCC(=O)OC(C)(C)C)ccc2NC(=O)C[C@@H]2N=C(c3ccc(Cl)cc3)c3c(sc(C)c3C)-n3c(C)nnc32)C(C)(C)C)cc1

Emax [9]: > 100%
SMILES: CNC(=O)N1CCc2c(c(N3CCCc4cc(-c5cnn(C)c5)c(C(F)F)cc43)nn2C2CCN(C(=O)CCOCCOCCOCCOCCNc3ccc4c(c3)C(=O)N(C3CCC(=O)NC3=O)C4=O)CC2)C1 (configuration not stated)

Emax [10]: 90%
DC50 [11]: 0.5 µM
DC50 [12]: 0.042 µM
SMILES: CN1CCN(c2ccc(-c3cccc(CN4CCN(CCNC(=O)CCCCCCCNc5cccc6c5C(=O)N(C5CCC(=O)NC5=O)C6=O)CC4)c3)cc2NC(=O)c2c[nH]c(=O)cc2C(F)(F)F)CC1 (configuration not stated)

DC50 [17]: 0.0033 µM
DC50 [18]: 0.0011 µM
SMILES: Cc1ncsc1-c1ccc(CNC(=O)[C@@H]2C[C@@H](O)CN2C(=O)[C@@H](NC(=O)OCC(C)(COCCOCCOCCNC(=O)C[C@@H]2N=C(c3ccc(Cl)cc3)c3c(sc(C)c3C)-n3c(C)nnc32)COCCOCCOCCNC(=O)C[C@@H]2N=C(c3ccc(Cl)cc3)c3c(sc(C)c3C)-n3c(C)nnc32)C(C)(C)C)cc1

IC50 [20]: < 0.001 µM
DC50 [22]: < 0.005 µM
SMILES: Cc1ncsc1-c1ccc([C@H](C)NC(=O)[C@@H]2C[C@@H](O)CN2C(=O)[C@@H](NC(=O)COCCCOCCNC(=O)C[C@@H]2N=C(c3ccc(Cl)cc3)c3c(sc(C)c3C)-n3c(C)nnc32)C(C)(C)C)cc1
IC50 [19]: < 0.001 µM
IC50 [21]: < 0.001 µM
